Results published in the supplement of paper PMC10307832.

Columns and labels:
Assay in all cases: relative viability (nuclei count vs DMSO), 5 days (fraction); higher = more cells survive
[1] = compound: CC1=CC=C(C=C1)C(=O)CN2C3=C(CCCC3)SC2=N [Pifithrin_alpha] + CCNC(=O)c1noc(-c2cc(C(C)C)c(O)cc2O)c1-c1ccc(CN2CCOCC2)cc1 [Luminespib] (partner 0.01 µM)
Procedure, shortened: (§1)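 One day after seeding in 1536-well plates, lung cancer cell lines were dosed by pin tool. Dosing was either single-drug or a fixed anchor-drug dose plus five library-drug doses (not always all listed) in √10 steps. After 5 days, nuclei were stained in one fix-and-stain step and counted on 4× images, and relative viability is the nuclei count of treated wells over that of vehicle wells, given as the median of duplicate plates.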

[2] = compound: CC1=CC=C(C=C1)C(=O)CN2C3=C(CCCC3)SC2=N [Pifithrin_alpha] + CS(=O)(=O)CCNCc1ccc(-c2ccc3ncnc(Nc4ccc(OCc5cccc(F)c5)c(Cl)c4)c3c2)o1 [Lapatinib] (partner 2 µM)
Procedure, shortened: as §1

Axitinib + Navitoclax = compound: CNC(=O)c1ccccc1Sc1ccc2c(/C=C/c3ccccn3)n[nH]c2c1 [Axitinib] + CC1(C)CCC(c2ccc(Cl)cc2)=C(CN2CCN(c3ccc(C(=O)NS(=O)(=O)c4ccc(N[C@H](CCN5CCOCC5)CSc5ccccc5)c(S(=O)(=O)C(F)(F)F)c4)cc3)CC2)C1 [Navitoclax] (partner 0.5 µM)
Procedure, shortened: as §1

Bemcentinib + OSI-027 = compound: Nc1nc(Nc2ccc3c(c2)CC[C@@H](N2CCCC2)CC3)nn1-c1cc2c(nn1)-c1ccccc1CCC2 [Bemcentinib] + COc1cccc2cc(-c3nc([C@H]4CC[C@H](C(=O)O)CC4)n4ncnc(N)c34)[nH]c12 [OSI-027] (partner 0.5 µM)
Procedure, shortened: as §1

| Cell Line | relative viability ([1]; first compound 1 µM) | relative viability ([1]; first compound 3.162 µM) | relative viability ([1]; first compound 10 µM) | relative viability ([1]; first compound 31.62 µM) | relative viability ([1]; first compound 100 µM) | relative viability ([2]; first compound 3.162 µM) | relative viability ([2]; first compound 10 µM) | relative viability ([2]; first compound 100 µM) | relative viability (Axitinib + Navitoclax; first compound 0.005 µM) | relative viability (Axitinib + Navitoclax; first compound 0.01581 µM) | relative viability (Axitinib + Navitoclax; first compound 0.05 µM) | relative viability (Axitinib + Navitoclax; first compound 0.1581 µM) | relative viability (Axitinib + Navitoclax; first compound 0.5 µM) | relative viability (Bemcentinib + OSI-027; first compound 0.04 µM) | relative viability (Bemcentinib + OSI-027; first compound 0.1265 µM) | relative viability (Bemcentinib + OSI-027; first compound 0.4 µM) | relative viability (Bemcentinib + OSI-027; first compound 1.265 µM) | relative viability (Bemcentinib + OSI-027; first compound 4 µM) | relative viability ([2]; first compound 1 µM) | relative viability ([2]; first compound 31.62 µM) |
| --- | --- | --- | --- | --- | --- | --- | --- | --- | --- | --- | --- | --- | --- | --- | --- | --- | --- | --- | --- | --- |
| LCLC-97TM1 | 0.742 | 0.783 | 0.774 | 0.423 | 0.808 | 1.17 | 0.79 | 1.38 | 0.485 | 0.506 | 0.475 | 0.489 | 0.534 | 0.649 | 0.527 | 0.538 | 0.542 | 0.598 | – | – |
| A-427 | 1.07 | 0.917 | 1 | 0.678 | 0.828 | 0.877 | 0.99 | 1.18 | 0.999 | 1.05 | 0.925 | 0.958 | 1.04 | 0.455 | 0.511 | 0.492 | 0.427 | 0.472 | 0.981 | 0.845 |
| EMC-BAC-2 | 1.17 | 1.12 | 0.969 | – | 1.08 | 0.905 | 0.864 | 0.928 | 1.27 | 1.12 | 1.16 | 1.16 | 1.27 | 0.372 | 0.369 | 0.427 | 0.37 | 0.388 | 0.87 | 0.623 |
| NCI-H2228 | 0.145 | 0.15 | 0.178 | 0.149 | 0.124 | 1.19 | 0.848 | 0.904 | 0.698 | 0.893 | 0.847 | 0.99 | 1.19 | 0.186 | 0.599 | 0.745 | 0.575 | 0.775 | 1.25 | 0.747 |
| NCI-H838 | 0.248 | 0.292 | 0.263 | 0.237 | 0.198 | 0.908 | 0.822 | 0.615 | 1.2 | 1.18 | 1.21 | 1.15 | 1.3 | 0.38 | 0.434 | 0.371 | 0.442 | 0.372 | 1.08 | 0.562 |
| COR-L 105 | 0.675 | 0.763 | 0.547 | 0.62 | 0.685 | 0.395 | 0.336 | 0.533 | 1 | 0.828 | 0.795 | 0.65 | 1.07 | 0.521 | 0.642 | 0.571 | 0.713 | 0.726 | 0.343 | 0.321 |
| SK-MES-1 | 0.644 | 0.698 | 0.478 | 0.262 | 0.286 | 0.447 | 0.458 | 0.447 | 1.32 | 1.2 | 1.32 | 1.25 | 1.51 | 0.645 | 0.595 | 0.666 | 0.799 | 0.69 | 0.461 | 0.439 |
| HARA | – | 0.899 | 0.792 | – | 0.481 | 0.625 | 0.759 | 0.478 | 0.979 | 1.08 | 1.14 | 1.08 | 1.19 | 0.479 | 0.758 | 0.589 | 0.453 | 0.469 | 0.675 | 0.589 |
| NCI-H727 | 0.44 | 0.238 | 0.491 | – | 0.263 | 0.903 | 0.695 | 0.565 | 0.582 | 0.466 | 0.454 | 0.451 | 0.61 | 0.552 | 0.631 | 0.645 | 0.592 | 0.576 | 0.884 | 0.555 |
| NCI-H2009 | 1.07 | 1.04 | 0.926 | 0.701 | 0.967 | 0.906 | 0.847 | 0.813 | 1.19 | 1.19 | 1.17 | 1.18 | 1.23 | 0.626 | 0.743 | 0.684 | 0.709 | 0.665 | 0.368 | 0.457 |
| NCI-H1944 | 0.694 | 0.633 | 0.588 | 0.42 | 0.504 | 0.67 | 0.517 | 0.598 | 1.07 | 0.995 | 1.01 | 1.02 | 1.06 | 0.43 | 0.483 | 0.407 | 0.413 | 0.41 | 0.755 | – |
| SW 1573 | 0.245 | 0.214 | 0.188 | – | 0.175 | 1.14 | 1.02 | 0.81 | 0.914 | 1.03 | 1.05 | 0.852 | 0.904 | 0.609 | 0.731 | 0.677 | 0.589 | 0.661 | 1.1 | 0.798 |
| NCI-H1975 | 0.291 | 0.151 | 0.199 | 0.189 | 0.181 | 0.544 | 0.655 | 0.761 | 1.24 | 1.07 | 1.14 | 1.19 | 1.17 | 0.719 | 0.82 | 0.737 | 0.795 | 0.772 | 0.895 | 0.489 |
| UMC-11 | 0.98 | 1.22 | 1.36 | 1.08 | 1.48 | 1.06 | 0.933 | 1.06 | 0.322 | 0.305 | 0.282 | 0.347 | 0.294 | 0.466 | 0.528 | 0.504 | 0.516 | 0.473 | 1.03 | 0.764 |
| NCI-H520 | 0.213 | 0.21 | 0.24 | – | 0.223 | 0.978 | 0.88 | 0.878 | 0.987 | 1.26 | 1.1 | 0.794 | 1.11 | 0.237 | 0.24 | 0.262 | 0.247 | 0.258 | 1.01 | 0.694 |
| COR-L23 | 0.703 | 0.865 | 0.562 | – | 0.484 | 1.28 | 1.06 | 0.926 | 0.948 | 0.983 | 1.15 | 1.07 | 1.15 | 0.665 | 0.969 | 0.905 | 0.788 | 0.888 | 1.05 | – |
| NCI-H2023 | 0.544 | 0.637 | 0.364 | 0.277 | 0.34 | 0.737 | 0.638 | 0.589 | 1.05 | 1.01 | 0.874 | 0.94 | 1.01 | 0.323 | 0.511 | 0.462 | 0.419 | 0.445 | 0.274 | 0.291 |
| NCI-H1650 | – | 0.223 | 0.176 | 0.209 | 0.169 | 0.665 | 0.739 | 0.839 | 1.27 | 0.981 | 1.35 | 1.24 | 1.41 | 0.59 | 0.913 | 0.624 | 0.72 | 0.724 | 0.395 | 0.521 |
| RERF-LC-KJ | 1.3 | 1.25 | 0.959 | 0.512 | 0.44 | 0.865 | 0.836 | 0.768 | 1 | 0.942 | 0.973 | 1.02 | 1.28 | 0.594 | 0.552 | 0.571 | 0.58 | 0.567 | 0.819 | 0.747 |
| NCI-H1734 | 0.184 | 0.186 | 0.191 | 0.159 | 0.18 | 1.08 | 0.953 | 1.07 | 0.903 | 0.839 | 0.843 | 0.861 | 0.971 | 0.643 | 0.66 | 0.552 | 0.583 | 0.591 | 1.05 | 0.749 |
| NCI-H2087 | 0.169 | 0.172 | 0.153 | – | 0.135 | 0.942 | 0.913 | 0.972 | 1.24 | 1.1 | 1.04 | 0.899 | 1.07 | 0.495 | 0.687 | 0.589 | 0.544 | 0.571 | 0.991 | 0.655 |
| EKVX | 0.885 | – | 0.826 | 0.726 | 0.769 | 0.16 | 0.139 | 0.14 | 1.07 | 0.962 | 0.823 | 0.921 | 0.961 | 0.57 | 0.669 | 0.753 | 0.793 | 0.824 | 0.167 | 0.181 |
| NCI-H1915 | 0.972 | 1.25 | – | – | 1.08 | 1.15 | 0.883 | 1.13 | 0.802 | 0.778 | 0.77 | 0.753 | 0.812 | 0.625 | 0.661 | 0.635 | 0.59 | 0.696 | 0.923 | – |
| NCI-H3122 | 0.0988 | 0.106 | 0.0966 | – | 0.065 | 1.04 | 1.05 | 1.01 | 0.992 | 0.956 | 1.05 | 1.02 | 1.04 | – | 1.08 | 0.978 | 1.11 | 0.983 | 1.11 | 0.837 |
| BEN | 0.191 | 0.285 | 0.401 | 0.493 | 0.398 | 0.769 | 0.686 | 0.873 | 0.074 | 0.0723 | 0.0728 | 0.0721 | 0.0571 | 0.292 | 0.288 | 0.296 | 0.345 | 0.322 | 0.522 | 0.733 |
| 201T | 1.23 | 0.805 | 0.917 | 0.8 | 0.766 | 0.728 | 0.744 | 0.689 | 1.21 | 1.18 | 1.18 | 1.27 | 1.23 | 0.599 | 1.02 | 0.778 | 0.709 | 0.801 | 0.959 | 0.83 |
| NCI-H1792 | 0.323 | 0.666 | 0.284 | 0.219 | 0.271 | 1.24 | 0.83 | 0.878 | 0.637 | 0.527 | 0.62 | 0.562 | 0.366 | 0.85 | 0.884 | 0.881 | 1 | 0.768 | 0.68 | 0.508 |
